In the supplement of paper PMC10307832:

Key:
Assay in all cases: relative viability (nuclei count vs DMSO), 5 days (fraction); higher = more cells survive
IPA-3 + Lapatinib = compound: C1=CC=C2C(=C1)C=CC(=C2SSC3=C(C=CC4=CC=CC=C43)O)O [IPA-3] + CS(=O)(=O)CCNCc1ccc(-c2ccc3ncnc(Nc4ccc(OCc5cccc(F)c5)c(Cl)c4)c3c2)o1 [Lapatinib] (partner 2 µM)
Method in brief: (§1)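 Lung cancer cell lines in 1536-well plates were dosed by pin tool the day after seeding, either with one drug alone or with a fixed anchor-drug dose plus five library-drug doses (not always all listed) in √10 steps. After 5 days, cells were fixed and their nuclei stained in one step (final 0.05% Triton X-100, 1% formaldehyde, 1 ug/ml Hoechst), then counted on 4× images. Relative viability is the nuclei count in treated wells divided by that in vehicle wells. Values are medians of duplicate plates.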

IPA-3 + Foretinib = compound: C1=CC=C2C(=C1)C=CC(=C2SSC3=C(C=CC4=CC=CC=C43)O)O [IPA-3] + COc1cc2c(Oc3ccc(NC(=O)C4(C(=O)Nc5ccc(F)cc5)CC4)cc3F)ccnc2cc1OCCCN1CCOCC1 [Foretinib] (partner 0.25 µM)
Method in brief: as §1

Doramapimod + Decitabine = compound: Cc1ccc(-n2nc(C(C)(C)C)cc2NC(=O)Nc2ccc(OCCN3CCOCC3)c3ccccc23)cc1 [Doramapimod] + Nc1ncn([C@H]2C[C@H](O)[C@@H](CO)O2)c(=O)n1 [Decitabine] (partner 2 µM)
Method in brief: as §1

Doramapimod + Tozasertib = compound: Cc1ccc(-n2nc(C(C)(C)C)cc2NC(=O)Nc2ccc(OCCN3CCOCC3)c3ccccc23)cc1 [Doramapimod] + Cc1cc(Nc2cc(N3CCN(C)CC3)nc(Sc3ccc(NC(=O)C4CC4)cc3)n2)n[nH]1 [Tozasertib] (partner 0.1 µM)
Method in brief: as §1

Row | Cell Line | relative viability (IPA-3 + Lapatinib; first compound 0.2 µM) | relative viability (IPA-3 + Lapatinib; first compound 0.6325 µM) | relative viability (IPA-3 + Lapatinib; first compound 2 µM) | relative viability (IPA-3 + Lapatinib; first compound 6.325 µM) | relative viability (IPA-3 + Lapatinib; first compound 20 µM) | relative viability (IPA-3 + Foretinib; first compound 0.2 µM) | relative viability (IPA-3 + Foretinib; first compound 0.6325 µM) | relative viability (IPA-3 + Foretinib; first compound 2 µM) | relative viability (IPA-3 + Foretinib; first compound 6.325 µM) | relative viability (IPA-3 + Foretinib; first compound 20 µM) | relative viability (Doramapimod + Decitabine; first compound 0.02 µM) | relative viability (Doramapimod + Decitabine; first compound 0.06325 µM) | relative viability (Doramapimod + Decitabine; first compound 0.2 µM) | relative viability (Doramapimod + Decitabine; first compound 0.6325 µM) | relative viability (Doramapimod + Decitabine; first compound 2 µM) | relative viability (Doramapimod + Tozasertib; first compound 0.02 µM) | relative viability (Doramapimod + Tozasertib; first compound 0.06325 µM) | relative viability (Doramapimod + Tozasertib; first compound 0.2 µM) | relative viability (Doramapimod + Tozasertib; first compound 0.6325 µM) | relative viability (Doramapimod + Tozasertib; first compound 2 µM)
1 | 201T | 1.06 | 1.05 | 1.02 | 1.04 | 1.07 | 1.33 | 1.11 | 1.17 | 1.09 | 1.15 | 0.857 | 0.863 | 0.886 | 0.921 | 0.925 | 0.914 | 0.918 | 0.935 | 1.05 | 0.906
2 | A549 | 1.07 | 0.897 | 1.01 | 1 | 0.981 | 0.988 | 0.927 | 1.01 | 0.884 | 1.21 | 0.235 | 0.309 | 0.312 | 0.175 | 0.278 | – | – | – | – | –
3 | A-427 | 1.17 | 0.997 | 0.981 | 1.09 | 1.2 | 1.1 | 1.08 | 1.11 | 1.06 | 1.14 | 0.588 | 0.557 | 0.536 | – | 0.541 | 0.248 | 0.216 | 0.218 | – | 0.189
4 | ABC-1 | 1.1 | 1.06 | 1.23 | 1.37 | 1.29 | 1.06 | 1.13 | 1 | 1.17 | 1.19 | 1 | 1.19 | 0.983 | 0.959 | 1.01 | 0.235 | 0.228 | 0.183 | 0.189 | 0.123
5 | BEN | 0.749 | 0.673 | 0.832 | 0.735 | 0.677 | 0.733 | 0.598 | 0.729 | 0.889 | 0.614 | 0.69 | 0.769 | 0.799 | 0.512 | 0.675 | 0.533 | 0.402 | 0.499 | 0.325 | 0.429
6 | CAL-12T | 0.919 | 0.651 | 0.761 | 0.643 | 0.756 | 1.16 | 1.01 | 1.12 | 0.976 | 1.14 | – | – | – | – | – | 0.298 | 0.341 | 0.338 | 0.272 | 0.315
7 | COR-L23 | 1.09 | 0.985 | 1.01 | 1.02 | 0.988 | 1.12 | 0.964 | 1.04 | 0.928 | 0.906 | 0.409 | 0.412 | 0.507 | 0.432 | 0.41 | 0.268 | 0.22 | 0.173 | 0.178 | 0.176
8 | COR-L 105 | 0.384 | 0.374 | 0.359 | 0.325 | 0.304 | 1.24 | 1.11 | 0.744 | 1.02 | 1.15 | 0.602 | 0.641 | 0.718 | 0.802 | 0.676 | 0.409 | 0.342 | 0.376 | 0.35 | 0.365
9 | Calu-6 | 1.15 | 0.958 | 1.05 | 1.01 | 1.05 | 1.01 | 0.95 | 0.96 | 0.808 | 0.932 | – | – | – | – | – | – | – | – | – | –
10 | ChaGo-K-1 | – | – | – | – | – | 0.933 | 0.875 | 0.996 | 0.93 | 1.14 | 0.555 | 0.54 | 0.541 | 0.49 | 0.503 | 0.225 | 0.227 | 0.229 | 0.215 | 0.217
11 | EBC-1 | 0.191 | 0.223 | 0.199 | 0.217 | 0.25 | 0.104 | 0.113 | 0.0992 | 0.121 | 0.108 | – | – | – | – | – | – | – | – | – | –
12 | EKVX | 0.198 | 0.201 | 0.204 | 0.225 | 0.217 | 0.775 | 0.668 | 0.895 | 0.893 | 1.21 | 0.404 | 0.313 | 0.289 | 0.31 | 0.239 | 0.324 | 0.385 | 0.43 | 0.336 | 0.341
13 | EMC-BAC-2 | 0.905 | 0.92 | 0.88 | 0.95 | 0.992 | 1.07 | 1 | 1.07 | 1.01 | 1.22 | 1 | 0.905 | 0.99 | 0.955 | 0.858 | 0.284 | 0.286 | 0.272 | 0.304 | 0.238
14 | EPLC-272H | 1.01 | 1.01 | 0.915 | 0.881 | 1.04 | 0.901 | 0.639 | 0.655 | 0.795 | 0.857 | 0.377 | 0.389 | 0.361 | – | 0.394 | 0.319 | 0.275 | 0.441 | 0.29 | 0.246
15 | H3255 | 0.213 | 0.277 | 0.184 | 0.2 | 0.23 | 0.861 | 0.865 | 0.876 | 0.832 | 0.861 | 0.688 | 0.581 | 0.767 | – | 0.569 | 0.688 | 0.65 | 0.669 | 0.602 | 0.452
16 | HARA | 0.764 | 0.659 | 0.57 | 0.793 | 0.74 | 1.23 | 0.854 | 0.943 | 0.855 | 1.31 | 0.52 | 0.463 | 0.49 | 0.574 | 0.42 | 0.128 | 0.112 | 0.106 | – | 0.107
17 | HCC-15 | 1.08 | 0.77 | 0.806 | 0.868 | 0.958 | 1.11 | 0.965 | 1.03 | 1.01 | 1.02 | 0.64 | 0.621 | 0.63 | 0.645 | 0.681 | 0.401 | 0.343 | 0.414 | – | 0.309
18 | HCC-44 | 0.995 | 1.02 | 1.05 | 0.883 | 1.03 | – | – | – | – | – | 0.958 | 0.984 | 1.03 | 0.945 | 0.978 | 0.961 | 1.01 | 1.19 | 0.913 | 0.84
